Measurements: US9113629B2, “4-amino-6-(4-substituted-phenyl)-picolinates and 6-amino-2-(4-substituted-phenyl)-pyrimidine-4-carboxylates and their use as herbicides” (DOW AGROSCIENCES LLC, priority 2013, dated 2015)
Read-outs that look alike come from different tables or passages of the source.

Columns and labels:
[1] = test system: Key Broadleaf Weed and Crop Species; experiment: Post-emergent Test II herbicidal activity (Table 5); type: in vivo; conditions: post-emergence, 336 h, 14 days after application; for pest or weed control at 70 g/ha: application rate 70 g ai/ha; for pest or weed control at 140 g/ha: application rate 140 g ai/ha
Procedure, shortened: (§1)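 Greenhouse post-emergent assay: seedlings (first/second true leaf) in Metro-Mix 360 were sprayed at 187 L/ha at a top rate plus twofold dilutions down to 1/16×; solvent-blank controls were included. Percent visual injury was read at 14 d.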

[2] = test system: Key Grass and Sedge Weeds as well as Grass Crops; experiment: Post-emergent Test II herbicidal activity (Table 6); type: in vivo; conditions: post-emergence, 336 h; for pest or weed control at 70 g/ha: 70 g ai/ha; for pest or weed control at 140 g/ha: 140 g ai/ha
Procedure, shortened: as §1

[3] = ABUTH: velvetleaf (Abutilon theophrasti), read-out: Visual Growth Reduction (%) 14 Days After Application, ABUTH
[4] = AMARE: redroot pigweed (Amaranthus retroflexus), read-out: Visual Growth Reduction (%) 14 Days After Application, AMARE
[5] = BRSNN: oilseed-rape, canola (Brassica napus), read-out: Visual Growth Reduction (%) 14 Days After Application, BRSNN
[6] = CHEAL: lambsquarters (Chenopodium album), read-out: Visual Growth Reduction (%) 14 Days After Application, CHEAL
[7] = EPHHL: wild poinsettia (Euphorbia heterophylla), read-out: Visual Growth Reduction (%) 14 Days After Application, EPHHL
[8] = HELAN: sunflower (Helianthus annuus), read-out: Visual Growth Reduction (%) 14 Days After Application, HELAN
[9] = VIOTR: wild pansy (Viola tricolor), read-out: Visual Growth Reduction (%) 14 Days After Application, VIOTR
[10] = CYPES: yellow nutsedge (Cyperus esculentus), read-out: Visual Growth Reduction (%) 14 Days After Application, CYPES
[11] = DIGSA: crabgrass (Digitaria sanguinalis), read-out: Visual Growth Reduction (%) 14 Days After Application, DIGSA
[12] = ECHCG: barnyardgrass (Echinochloa crus-galli), read-out: Visual Growth Reduction (%) 14 Days After Application, ECHCG
[13] = ORYSA: rice (Oryza sativa), crop, read-out: Visual Growth Reduction (%) 14 Days After Application, ORYSA
[14] = SETFA: giant foxtail (Setaria faberi), read-out: Visual Growth Reduction (%) 14 Days After Application, SETFA
[15] = SORVU: grain sorghum (Sorghum vulgare), read-out: Visual Growth Reduction (%) 14 Days After Application, SORVU
[16] = TRZSS (wheat, Triticum aestivum), crop, read-out: Visual Growth Reduction (%) 14 Days After Application, TRZSS
[17] = ZEAMX: maize, corn (Zea mays), crop, read-out: Visual Growth Reduction (%) 14 Days After Application, ZEAMX

Work on COC(=O)c1nc(-c2ccc(Br)c(F)c2F)c(F)c(N)c1Cl [Compound 109, methyl 4-amino-6-(4-bromo-2,3-difluorophenyl)-3-chloro-5-fluoropicolinate] yielded a pest or weed control at 70 g/ha [1, 3] of 95 to 100%, a pest or weed control at 140 g/ha [1, 3] of 95 to 100% and a pest or weed control at 70 g/ha [1, 4] of 95 to 100%. For the same compound, the pest or weed control at 140 g/ha [1, 4] was 95 to 100%, the pest or weed control at 70 g/ha [1, 5] was 95 to 100% and the pest or weed control at 140 g/ha [1, 5] was 95 to 100%. It also gave a pest or weed control at 70 g/ha [1, 6] of 95 to 100%, a pest or weed control at 140 g/ha [1, 6] of 95 to 100% and a pest or weed control at 70 g/ha [1, 7] of 95 to 100%. It also gave a pest or weed control at 140 g/ha [1, 7] of 95 to 100%, a pest or weed control at 70 g/ha [1, 8] of 0 to 29% and a pest or weed control at 140 g/ha [1, 8] of 95 to 100%. The pest or weed control at 70 g/ha [1, 9] was 95 to 100%, the pest or weed control at 140 g/ha [1, 9] was 95 to 100% and the pest or weed control at 70 g/ha [2, 10] was 95 to 100%. For the same compound, the pest or weed control at 140 g/ha [2, 10] was 95 to 100%, the pest or weed control at 70 g/ha [2, 11] was 85 to 94% and the pest or weed control at 140 g/ha [2, 11] was 95 to 100%. For the same compound, the pest or weed control at 70 g/ha [2, 12] was 95 to 100%, the pest or weed control at 140 g/ha [2, 12] was 95 to 100% and the pest or weed control at 70 g/ha [2, 13] was 45 to 59%. For the same compound, the pest or weed control at 140 g/ha [2, 13] was 45 to 59%, the pest or weed control at 70 g/ha [2, 14] was 95 to 100% and the pest or weed control at 140 g/ha [2, 14] was 95 to 100%. The pest or weed control at 70 g/ha [2, 15] was 85 to 94%, the pest or weed control at 140 g/ha [2, 15] was 95 to 100% and the pest or weed control at 70 g/ha [2, 16] was 45 to 59%. It also gave a pest or weed control at 140 g/ha [2, 16] of 60 to 74%, a pest or weed control at 70 g/ha [2, 17] of 85 to 94% and a pest or weed control at 140 g/ha [2, 17] of 85 to 94%.
